Measured values reported in patent US12344600B2, “c-Myc mRNA translation modulators and uses thereof in the treatment of cancer” (Anima Biotech Inc., priority 2022, dated 2025).

These molecules were tested on c-Myc (assay: c-Myc immunofluorescence assay). Details: A549 cells, 24 hours, anti-c-Myc immunofluorescence.
Assay type: cell-based, human
How it was run: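 A549 NSCLC cells grown 48 h, then treated 24 h with increasing compound concentrations; fixed in 4% paraformaldehyde, stained with anti-c-Myc antibody plus fluorescent secondary and DAPI. Per-cell c-Myc fluorescence quantified by high-content imaging at 20×; dose-response fitted by logistic regression to give EC50.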

Question: O=C(C1CCN(c2nc(-c3ccccc3Cl)no2)CC1)N1CCOCC1 [Compound 164, (1-(3-(2-chlorophenyl)-1,2,4-oxadiazol-5-yl)piperidin-4-yl)(morpholino)methanone] was tested. Which “Myc Efficacy (−LogEC50)” value did it give?
Answer: − (− ≤3)

Question: With O=C(NCCCN1CCC(Cc2ccccc2F)CC1)N1CCN(c2nc(-c3ccc(OC(F)(F)F)cc3)no2)CC1 [Compound 429, N-(3-(4-(2-fluorobenzyl)piperidin-1-yl)propyl)-4-(3-(4-(trifluoromethoxy)phenyl)-1,2,4-oxadiazol-5-yl)piperazine-1-carboxamide] as the molecule, how does the “Myc Efficacy (−LogEC50)” value read?
Answer: +++ (+++ ≥6)

Question: For COc1ccc(-c2noc(N3CCN(C(=O)NCc4cc5ccccc5[nH]4)CC3)n2)cc1 [Compound 417, N-((1H-indol-2-yl)methyl)-4-(3-(4-methoxyphenyl)-1,2,4-oxadiazol-5-yl)piperazine-1-carboxamide], which “Myc Efficacy (−LogEC50)” value is on record?
Answer: ++ (++ ≥5 and <6)

Question: COc1ccc(-c2noc(N3CCC(C(=O)NC(C)C(C)(C)O)CC3)n2)cc1 (stereo not shown) [Compound 297, N-(3-hydroxy-3-methylbutan-2-yl)-1-(3-(4-methoxyphenyl)-1,2,4-oxadiazol-5-yl)piperidine-4-carboxamide] was tested. Which “Myc Efficacy (−LogEC50)” value did it give?
Answer: + (+ >3 and <5)

Question: How did the “Myc Efficacy (−LogEC50)” value turn out when COc1ccc(-c2noc(N3CCC(C(=O)NCC4CCN(Cc5ncccc5C)C4)CC3)n2)cc1 (stereo not shown) [Compound 350, 1-(3-(4-methoxyphenyl)-1,2,4-oxadiazol-5-yl)-N-((1-((3-methylpyridin-2-yl)methyl)pyrrolidin-3-yl)methyl)piperidine-4-carboxamide] was run?
Answer: ++ (++ ≥5 and <6)

Question: Which “Myc Efficacy (−LogEC50)” value does the source give for COc1ccc(-c2noc(N3CCC(C(=O)NCC4CCN(Cc5nccs5)C4)CC3)n2)cc1 (stereo not shown) [Compound 364, 1-(3-(4-methoxyphenyl)-1,2,4-oxadiazol-5-yl)-N-((1-(thiazol-2-ylmethyl)pyrrolidin-3-yl)methyl)piperidine-4-carboxamide] here?
Answer: + (+ >3 and <5)

Question: With COc1ccc(-c2noc(N3CCC(C(=O)NC(CO)CC(F)(F)F)CC3)n2)cc1 (stereo not shown) [Compound 299, 1-(3-(4-methoxyphenyl)-1,2,4-oxadiazol-5-yl)-N-(4,4,4-trifluoro-1-hydroxybutan-2-yl)piperidine-4-carboxamide] as the molecule, how does the “Myc Efficacy (−LogEC50)” value read?
Answer: + (+ >3 and <5)

Question: For COc1ccc(-c2noc(N3CCC(C(=O)NCC4CCOC4)CC3)n2)cc1 (stereo not shown) [Compound 255, 1-(3-(4-methoxyphenyl)-1,2,4-oxadiazol-5-yl)-N-((tetrahydrofuran-3-yl)methyl)piperidine-4-carboxamide], which “Myc Efficacy (−LogEC50)” value is on record?
Answer: + (+ >3 and <5)

Question: With COc1ccc(-c2noc(N3CCC(C(=O)NCCOc4ccccc4)CC3)n2)cc1 [Compound 282, 1-(3-(4-methoxyphenyl)-1,2,4-oxadiazol-5-yl)-N-(2-phenoxyethyl)piperidine-4-carboxamide] as the molecule, how does the “Myc Efficacy (−LogEC50)” value read?
Answer: + (+ >3 and <5)

Question: Which “Myc Efficacy (−LogEC50)” value does the source give for O=C(NCc1cccnc1)C1CCN(c2nc(-c3ccc(O)cc3)no2)CC1 [Compound 178, 1-(3-(4-hydroxyphenyl)-1,2,4-oxadiazol-5-yl)-N-(pyridin-3-ylmethyl)piperidine-4-carboxamide] here?
Answer: + (+ >3 and <5)

Question: With Cc1ccc(CN2CC[C@H](CNC(=O)C3CCN(c4nc(-c5ccc(Cl)cc5)no4)CC3)C2)cc1 [Compound 168, (R)-1-(3-(4-chlorophenyl)-1,2,4-oxadiazol-5-yl)-N-((1-(4-methylbenzyl)pyrrolidin-3-yl)methyl)piperidine-4-carboxamide] as the molecule, how does the “Myc Efficacy (−LogEC50)” value read?
Answer: ++ (++ ≥5 and <6)

Question: How did the “Myc Efficacy (−LogEC50)” value turn out when COc1ccc(-c2noc(N3CCC(C(=O)NCCN(C)C4CC4)CC3)n2)cc1 [Compound 314, N-(2-(cyclopropyl(methyl)amino)ethyl)-1-(3-(4-methoxyphenyl)-1,2,4-oxadiazol-5-yl)piperidine-4-carboxamide] was run?
Answer: + (+ >3 and <5)

Question: For COc1ccc(-c2noc(N3CCC(C(=O)NCC4CCN(C(=O)c5ccc(C)cn5)C4)CC3)n2)cc1 (stereo not shown) [Compound 242, 1-(3-(4-methoxyphenyl)-1,2,4-oxadiazol-5-yl)-N-((1-(5-methylpicolinoyl)pyrrolidin-3-yl)methyl)piperidine-4-carboxamide], which “Myc Efficacy (−LogEC50)” value is on record?
Answer: + (+ >3 and <5)

Question: Which “Myc Efficacy (−LogEC50)” value does the source give for COc1ccc(-c2noc(N3CCC(C(=O)NCC4CCN(CCO)C4)CC3)n2)cc1 (stereo not shown) [Compound 362, N-((1-(2-hydroxyethyl)pyrrolidin-3-yl)methyl)-1-(3-(4-methoxyphenyl)-1,2,4-oxadiazol-5-yl)piperidine-4-carboxamide] here?
Answer: + (+ >3 and <5)

Question: With COc1ccc(-c2noc(N3CCC(C(=O)NC4(C5CC5)CCOCC4)CC3)n2)cc1 [Compound 291, N-(4-cyclopropyltetrahydro-2H-pyran-4-yl)-1-(3-(4-methoxyphenyl)-1,2,4-oxadiazol-5-yl)piperidine-4-carboxamide] as the molecule, how does the “Myc Efficacy (−LogEC50)” value read?
Answer: + (+ >3 and <5)

Question: For COc1ccc(-c2noc(N3CCC(C(=O)Nc4ccc(C5COC5)cc4)CC3)n2)cc1 [Compound 306, 1-(3-(4-methoxyphenyl)-1,2,4-oxadiazol-5-yl)-N-(4-(oxetan-3-yl)phenyl)piperidine-4-carboxamide], which “Myc Efficacy (−LogEC50)” value is on record?
Answer: + (+ >3 and <5)

Question: Which “Myc Efficacy (−LogEC50)” value does the source give for COc1ccc(-c2noc(N3CCN(C(=O)N4CCCC(CC(C)C)C4)CC3)n2)cc1 (stereo not shown) [Compound 226, (3-isobutylpiperidin-1-yl)(4-(3-(4-methoxyphenyl)-1,2,4-oxadiazol-5-yl)piperazin-1-yl)methanone] here?
Answer: + (+ >3 and <5)

Question: For COc1ccc(-c2noc(N3CCC(C(=O)NC(C)C4CCCCO4)CC3)n2)cc1 (stereo not shown) [Compound 313, 1-(3-(4-methoxyphenyl)-1,2,4-oxadiazol-5-yl)-N-(1-(tetrahydro-2H-pyran-2-yl)ethyl)piperidine-4-carboxamide], which “Myc Efficacy (−LogEC50)” value is on record?
Answer: − (− ≤3)

Question: With COc1ccc(-c2noc(N3CCC(C(=O)NCC4CCN(Cc5ncccc5F)C4)CC3)n2)cc1 (stereo not shown) [Compound 334, N-((1-((3-fluoropyridin-2-yl)methyl)pyrrolidin-3-yl)methyl)-1-(3-(4-methoxyphenyl)-1,2,4-oxadiazol-5-yl)piperidine-4-carboxamide] as the molecule, how does the “Myc Efficacy (−LogEC50)” value read?
Answer: + (+ >3 and <5)

Question: COc1ccc(-c2noc(N3CCN(C(=O)NCCCN4CCC(Oc5ccccc5)CC4)CC3)n2)cc1 [Compound 245, 4-(3-(4-methoxyphenyl)-1,2,4-oxadiazol-5-yl)-N-(3-(4-phenoxypiperidin-1-yl)propyl)piperazine-1-carboxamide] was tested. Which “Myc Efficacy (−LogEC50)” value did it give?
Answer: +++ (+++ ≥6)

Question: COc1ccc(-c2noc(N3CCN(C(=O)NCCCN4CCC(Cc5ccccc5)CC4)CC3)n2)cc1 [Compound 207, N-(3-(4-benzylpiperidin-1-yl)propyl)-4-(3-(4-methoxyphenyl)-1,2,4-oxadiazol-5-yl)piperazine-1-carboxamide] was tested. Which “Myc Efficacy (−LogEC50)” value did it give?
Answer: +++ (+++ ≥6)

Question: How did the “Myc Efficacy (−LogEC50)” value turn out when COc1ccc(-c2noc(N3CCC(C(=O)NCC4CCN(Cc5ccc(F)cc5)C4)CC3)n2)cc1 (stereo not shown) [Compound 331, N-((1-(4-fluorobenzyl)pyrrolidin-3-yl)methyl)-1-(3-(4-methoxyphenyl)-1,2,4-oxadiazol-5-yl)piperidine-4-carboxamide] was run?
Answer: ++ (++ ≥5 and <6)

Question: For COc1ccc(-c2noc(N3CCN(C(=O)NCCCN4CCC(Cc5ccccn5)CC4)CC3)n2)cc1 [Compound 248, 4-(3-(4-methoxyphenyl)-1,2,4-oxadiazol-5-yl)-N-(3-(4-(pyridin-2-ylmethyl)piperidin-1-yl)propyl)piperazine-1-carboxamide], which “Myc Efficacy (−LogEC50)” value is on record?
Answer: +++ (+++ ≥6)

Question: COc1ccc(-c2noc(N3CCC(C(=O)NCC4CCN(CC5CCCC5)C4)CC3)n2)cc1 (stereo not shown) [Compound 323, N-((1-(cyclopentylmethyl)pyrrolidin-3-yl)methyl)-1-(3-(4-methoxyphenyl)-1,2,4-oxadiazol-5-yl)piperidine-4-carboxamide] was tested. Which “Myc Efficacy (−LogEC50)” value did it give?
Answer: ++ (++ ≥5 and <6)

Question: COc1ccc(-c2noc(N3CCC(C(=O)NCC4CCN(CC5(C)COC5)C4)CC3)n2)cc1 (stereo not shown) [Compound 371, 1-(3-(4-methoxyphenyl)-1,2,4-oxadiazol-5-yl)-N-((1-((3-methyloxetan-3-yl)methyl)pyrrolidin-3-yl)methyl)piperidine-4-carboxamide] was tested. Which “Myc Efficacy (−LogEC50)” value did it give?
Answer: + (+ >3 and <5)

Question: Which “Myc Efficacy (−LogEC50)” value does the source give for COc1ccc(-c2noc(N3CCC(C(=O)N[C@H]4C[C@@H](OC)C4)CC3)n2)cc1 [Compound 256, N-((1s,3s)-3-methoxycyclobutyl)-1-(3-(4-methoxyphenyl)-1,2,4-oxadiazol-5-yl)piperidine-4-carboxamide] here?
Answer: + (+ >3 and <5)

Question: COc1ccc(-c2noc(N3CCC(C(=O)Nc4cccc(Cl)c4)CC3)n2)cc1 [Compound 212, N-(3-chlorophenyl)-1-(3-(4-methoxyphenyl)-1,2,4-oxadiazol-5-yl)piperidine-4-carboxamide] was tested. Which “Myc Efficacy (−LogEC50)” value did it give?
Answer: + (+ >3 and <5)

Question: Which “Myc Efficacy (−LogEC50)” value does the source give for COc1ccc(-c2noc(N3CCC(C(=O)NCC4CCN(CC5CCSCC5)C4)CC3)n2)cc1 (stereo not shown) [Compound 354, 1-(3-(4-methoxyphenyl)-1,2,4-oxadiazol-5-yl)-N-((1-((tetrahydro-2H-thiopyran-4-yl)methyl)pyrrolidin-3-yl)methyl)piperidine-4-carboxamide] here?
Answer: ++ (++ ≥5 and <6)

Question: For COc1ccc(-c2noc(N3CCC(C(=O)NCC4CCN(CC5CCOCC5)C4)CC3)n2)cc1 (stereo not shown) [Compound 355, 1-(3-(4-methoxyphenyl)-1,2,4-oxadiazol-5-yl)-N-((1-((tetrahydro-2H-pyran-4-yl)methyl)pyrrolidin-3-yl)methyl)piperidine-4-carboxamide], which “Myc Efficacy (−LogEC50)” value is on record?
Answer: + (+ >3 and <5)

Question: COc1ccc(-c2noc(N3CCC(C(=O)NC4CC(O)C4(C)C)CC3)n2)cc1 (stereo not shown) [Compound 294, N-(3-hydroxy-2,2-dimethylcyclobutyl)-1-(3-(4-methoxyphenyl)-1,2,4-oxadiazol-5-yl)piperidine-4-carboxamide] was tested. Which “Myc Efficacy (−LogEC50)” value did it give?
Answer: + (+ >3 and <5)

Question: For O=C(NCc1cccnc1)C1CCN(c2nc(-c3ccncc3)no2)CC1 [Compound 200, N-(pyridin-3-ylmethyl)-1-(3-(pyridin-4-yl)-1,2,4-oxadiazol-5-yl)piperidine-4-carboxamide], which “Myc Efficacy (−LogEC50)” value is on record?
Answer: + (+ >3 and <5)
